Patent US9422254B2, “Methoxyacrylate-based fungicide and methods for preparing and using the same” (priority 2008, dated 2016)
Several values for one entry are separate records, joined by “and”; a condition that tells them apart may be missing. Equal entries are not always repeated.

Assays:
Sclerotinia sclerotirum = test: microbe, parasite or virus in culture; type: cell-based; conditions: read-out: Inhibition rate (%)
Gibberella zea = test: organism not typed; type: cell-based; conditions: read-out: Inhibition rate (%)
Pyricularia oryzae = test: microbe, parasite or virus in culture; type: cell-based; conditions: read-out: Inhibition rate (%)
[1] = system: Colletotrichum lagenarium; test: microbe, parasite or virus in culture; type: cell-based; conditions: Colletotrichum orbiculare, read-out: Inhibition rate (%)
Phytophthora infestans = test: microbe, parasite or virus in culture; type: cell-based; conditions: read-out: Inhibition rate (%)
Phytophthora capsici = test: microbe, parasite or virus in culture; type: cell-based; conditions: read-out: Inhibition rate (%)
[2] = system: Rhizoctonia solani (wheat sheath blight); test: microbe, parasite or virus in culture; type: cell-based; conditions: read-out: Inhibition rate (%)
Fusarium moniliforme = test: microbe, parasite or virus in culture; type: cell-based; conditions: Fusarium verticillioides, read-out: Inhibition rate (%)
Cercospora arachidicola = test: microbe, parasite or virus in culture; type: cell-based; conditions: Mycosphaerella arachidis, read-out: Inhibition rate (%)
Acute oral test = type: in vivo, rat; conditions: in vivo
Experimental: (§1) The toxicological indexes of the compound were tested following the standard GB15670-1995 “Toxicological test methods of pesticides for registration” by Tongji Medical College, Huazhong University of Science and Technology.

rat = test: Acute oral test; type: in vivo; conditions: rat
Experimental: as §1

Acute skin test = type: in vivo, rat; conditions: in vivo, topical
Experimental: as §1

rabbit's skin = test: Skin stimulation test; type: in vivo
Experimental: as §1

mice spermatogonial = test: Chromosome aberration test of mice spermatogonial; type: in vivo
Experimental: as §1

quail = test: Acute oral toxicity test on quail; type: in vivo
Experimental: (§2) After acute toxicity and Ames test had been finished, environmental toxicity test was conducted following “Guideline for Environmental Safety Evaluation of Chemical Pesticides” of Agriculture Ministry of China by Shenyang Chemical Research Institute/Supervision and Test Center for Pesticide Safety Evaluation and Quality Control.

bee = test: Acute contact toxicity test on bee; type: in vivo
Experimental: as §2

NADH oxidase (NOX) = NADH oxidase (NOX) (Sus scrofa, UniProt P24964); test: Enzyme activity test, NOX; type: biochemical; conditions: azoxystrobin as control agent
Sequence of NADH oxidase (NOX) (P24964 whole entry): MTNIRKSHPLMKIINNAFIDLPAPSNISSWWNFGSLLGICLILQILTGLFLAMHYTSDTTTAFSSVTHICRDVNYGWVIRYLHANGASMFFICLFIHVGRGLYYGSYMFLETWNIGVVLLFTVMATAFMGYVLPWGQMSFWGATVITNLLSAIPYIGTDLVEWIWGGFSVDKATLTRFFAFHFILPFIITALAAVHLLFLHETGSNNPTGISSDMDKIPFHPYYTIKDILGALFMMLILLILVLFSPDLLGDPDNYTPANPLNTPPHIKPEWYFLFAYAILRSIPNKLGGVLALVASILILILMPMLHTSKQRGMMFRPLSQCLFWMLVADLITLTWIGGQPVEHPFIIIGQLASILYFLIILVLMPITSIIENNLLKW
Experimental: Take NADH oxidase (NOX), succinate-cytochrome C oxidase (SCO), and Complex III as target enzymes, the inhibitory activity of the compound of Formula (I) was tested.
^a NOX is generally used to detect an inhibitor of Complex I and Complex III; SCO is generally used to detect an inhibitor of Complex II and Complex III. Thus, an inhibitor of Complex III should have inhibitory activity on the two enzymes.

cucumber downy mildew = test: Field efficacy trial of emulsifier concentrate 1, cucumber downy mildew; type: in vivo
Experimental: To a beaker (1000 mL), 50 g (100% basis) of the compound of Formula (I), 150 g of DMF, and 50 g of acetone were added and stirred for dissolution. To the solution, 25 g of pesticide emulsifier No. 500 and 50 g of Tween 80, 20 g of epoxidized soybean oil, and […] of toluene were added. Thus, the emulsifier concentrate 1 having 5 wt. % of the compound of Formula (I) was obtained and further packed.
On the basis of indoor activity evaluation, field efficacy trials of the compound of Formula (I) on cucumber downy mildew, cucumber powdery mildew, and melon powdery mildew were conducted.

[3] = system: Cucumber gray mold (SC504002); test: In vivo micro-screening assay
Experimental: In Vivo Micro-Screening Assay
(§3) To further study the fungicidal spectrum of the compound of Formula (I), indoor in vivo micro-screening assay were carried out on cucumber gray mold, cucumber scab, cucumber sclerotinia rot, cucumber brown spot, pepper phytophthora blight, and rice sheath blight.
(§4) Medicament to be tested and medicament of control groups were prepared as needed in a sunny morning. Cucumber gray mold, cucumber scab, cucumber brown spot, cucumber sclerotinia rot, and rice sheath blight were medicated by spray, and after air dry, pathogens of cucumber scab and of cucumber brown spot were inoculated through spraying spore suspension respectively, pathogens of cucumber gray mold, of cucumber sclerotinia rot, and of rice sheath blight were inoculated through lawn foliage. Pepper phytophthora blight was medicated and inoculated by root-irrigation. Subsequently, all seedlings were cultured in wet environment.
(§5) After the disease of control groups were serious, spot area, disease index, and the diseased seedling rate were investigated to calculate the efficacy. Cucumber scab, cucumber brown spot, and pepper phytophthora blight were investigated by grading method. The spot extension area of cucumber gray mold and of rice sheath blight was investigated. The diseased seedling rate of cucumber sclerotinia rot was investigated. Disease index=Σ(amount of infected diseased leaves in a grade×relative value of the grade)×100/(total amount of leaves×9); Diseased seedling rate (%)=(total amount of seedlings−amount of diseased seedlings)/total amount of seedlings×100% Prevention and treatment effect (%)=(disease of control group−disease of experiment group)/disease of control group×100%

[4] = system: Cucumber sclerotinia rot (strain HGJH); test: In vivo micro-screening assay
Experimental: In Vivo Micro-Screening Assay
as §3
(§6) Cucumber scab strain: HX; cucumber brown spot strain: SDHGHB060509; cucumber sclerotinia rot strain: HGJH; pepper phytophthora blight strain: NSGP; and rice sheath blight strain: WK-1.
as §4, §5

[5] = system: Cucumber scab (strain HX); test: In vivo micro-screening assay
Experimental: In Vivo Micro-Screening Assay
as §3, §6, §4, §5

[6] = system: Rice sheath blight (strain WK-1); test: In vivo micro-screening assay
Experimental: In Vivo Micro-Screening Assay
as §3, §6, §4, §5

[7] = 25 mg/L, 5th day after third administration, Average
[8] = 25 mg/L, 5th day after third administration, No. 1-3
[9] = 25 mg/L, 9th day after third administration, Average
[10] = 25 mg/L, 9th day after third administration, No. 1-3
[11] = 25 mg/L, 12th day after second administration, Average
[12] = 25 mg/L, 12th day after second administration, No. 1-3
[13] = 50 mg/L, 5th day after third administration, Average
[14] = 50 mg/L, 5th day after third administration, No. 1-3
[15] = 50 mg/L, 9th day after third administration, Average
[16] = 50 mg/L, 9th day after third administration, No. 1-3
[17] = 50 mg/L, 12th day after second administration, Average
[18] = 50 mg/L, 12th day after second administration, No. 1-3
[19] = 100 mg/L, 5th day after third administration, Average
[20] = 100 mg/L, 5th day after third administration, No. 1-3
[21] = 100 mg/L, 9th day after third administration, Average
[22] = 100 mg/L, 9th day after third administration, No. 1-3
[23] = 100 mg/L, 12th day after second administration, Average

In the case of `CO/C=C(/C(=O)OC)c1ccccc1CSc1nc2cc(OC)ccc2s1` [Compound of Formula (I), (E)-methyl 3-methoxy-2-(2-((5-methoxy-benzothiazol-2-ylthio)methyl)phenyl)acrylate], the inhibition at 0.3 µg/mL (Sclerotinia sclerotirum; 0.3 mg/L) is reported as 50.8%, the inhibition at 3 µg/mL (Sclerotinia sclerotirum; 3 mg/L) is reported as 61% and the inhibition at 30 µg/mL (Sclerotinia sclerotirum; 30 mg/L) is reported as 80%. It also gave an inhibition at 0.3 µg/mL (Gibberella zea) of 34.9%, an inhibition at 3 µg/mL (Gibberella zea) of 45.9% and an inhibition at 30 µg/mL (Gibberella zea) of 54.6%. For the same compound, the inhibition at 0.3 µg/mL (Pyricularia oryzae) was 23.6%, the inhibition at 3 µg/mL (Pyricularia oryzae) was 56.5% and the inhibition at 30 µg/mL (Pyricularia oryzae) was 82.6%. For the same compound, the inhibition at 0.3 µg/mL ([1]; 0.3 mg/L) was 42%, the inhibition at 3 µg/mL ([1]; 3 mg/L) was 44.2% and the inhibition at 30 µg/mL ([1]; 30 mg/L) was 50.7%. For the same compound, the inhibition at 0.3 µg/mL (Phytophthora infestans) was 15.3%, the inhibition at 3 µg/mL (Phytophthora infestans) was 33.7% and the inhibition at 30 µg/mL (Phytophthora infestans) was 38%. It also gave an inhibition at 0.3 µg/mL (Phytophthora capsici; 0.3 mg/L) of 0%, an inhibition at 3 µg/mL (Phytophthora capsici; 3 mg/L) of 23.1% and an inhibition at 30 µg/mL (Phytophthora capsici; 30 mg/L) of 28.9%. For the same compound, the inhibition at 0.3 µg/mL ([2]; 0.3 mg/L) was 22.2%, the inhibition at 3 µg/mL ([2]; 3 mg/L) was 44.4% and the inhibition at 30 µg/mL ([2]; 30 mg/L) was 68.5%. The inhibition at 0.3 µg/mL (Fusarium moniliforme; 0.3 mg/L) was 9.6%, the inhibition at 3 µg/mL (Fusarium moniliforme; 3 mg/L) was 30.8% and the inhibition at 30 µg/mL (Fusarium moniliforme; 30 mg/L) was 43.6%. The inhibition at 0.3 µg/mL (Cercospora arachidicola; 0.3 mg/L) was 30.9%, the inhibition at 3 µg/mL (Cercospora arachidicola; 3 mg/L) was 35.7% and the inhibition at 30 µg/mL (Cercospora arachidicola; 30 mg/L) was 40.5%. The LD50 (Acute oral test; Female rat) was over 5000 mg/kg, the LD50 (Acute oral test; Male rat) was over 5000 mg/kg and the “Toxicity (acute oral test)” value (rat) was “Low toxicity”. For the same compound, the LD50 (Acute skin test; Female rat) was over 2000 mg/kg, the LD50 (Acute skin test; Male rat) was over 2000 mg/kg and the Skin stimulation (rabbit's skin) was “No stimulation on rabbit's skin”. The “Chromosome aberration test of mice spermatogonial” value (mice spermatogonial) was “Negative”, the LC50 (quail) was “LC50 > 1100 mg/kg.bw” and the “LC50 (48 hrs)” value (bee) was “LC50 (48 hrs) > 100 μg a.i./per bee”. For the same compound, the “inhibitory activity on NOX compared with azoxystrobin” value (NADH oxidase (NOX)) was “much higher inhibitory activity”, the Disease index (cucumber downy mildew; [7]) was 4.75 and the “Efficacy (%)” value (cucumber downy mildew; [7]) was 58.99%. The Disease index (cucumber downy mildew; [8]) was 4.86 and 4.51, the “Efficacy (%)” value (cucumber downy mildew; [8]) was 57.99% and 60.99% and the Disease index (cucumber downy mildew; [9]) was 11.50. The “Efficacy (%)” value (cucumber downy mildew; [9]) was 68.89%, the Disease index (cucumber downy mildew; [10]) was 12.04 and 10.42 and the “Efficacy (%)” value (cucumber downy mildew; [10]) was 67.43% and 71.82%. The Disease index (cucumber downy mildew; [11]) was 1.85, the “Efficacy (%)” value (cucumber downy mildew; [11]) was 69.24% and the Disease index (cucumber downy mildew; [12]) was 1.74 and 2.08. The “Efficacy (%)” value (cucumber downy mildew; [12]) was 71.16% and 65.39%, the Disease index (cucumber downy mildew; [13]) was 3.94 and the “Efficacy (%)” value (cucumber downy mildew; [13]) was 65.99%. For the same compound, the Disease index (cucumber downy mildew; [14]) was 3.47 and 4.51 and 3.82, the “Efficacy (%)” value (cucumber downy mildew; [14]) was 69.99% and 60.99% and 66.99% and the Disease index (cucumber downy mildew; [15]) was 8.72. The “Efficacy (%)” value (cucumber downy mildew; [15]) was 76.41%, the Disease index (cucumber downy mildew; [16]) was 10.65 and 7.18 and 8.33 and the “Efficacy (%)” value (cucumber downy mildew; [16]) was 71.19% and 80.58% and 77.45%. The Disease index (cucumber downy mildew; [17]) was 1.39, the “Efficacy (%)” value (cucumber downy mildew; [17]) was 76.93% and the Disease index (cucumber downy mildew; [18]) was 1.04 and 1.74 and 1.39. For the same compound, the “Efficacy (%)” value (cucumber downy mildew; [18]) was 82.70% and 71.16% and 76.93%, the Disease index (cucumber downy mildew; [19]) was 2.55 and the “Efficacy (%)” value (cucumber downy mildew; [19]) was 77.99%. The Disease index (cucumber downy mildew; [20]) was 2.08 and 2.43 and 3.13, the “Efficacy (%)” value (cucumber downy mildew; [20]) was 81.99% and 78.99% and 72.99% and the Disease index (cucumber downy mildew; [21]) was 7.10. The “Efficacy (%)” value (cucumber downy mildew; [21]) was 80.79%, the Disease index (cucumber downy mildew; [22]) was 8.10 and 7.18 and 6.02 and the “Efficacy (%)” value (cucumber downy mildew; [22]) was 78.08% and 80.58% and 83.72%. The Disease index (cucumber downy mildew; [23]) was 1.02, the “Efficacy (%)” value (cucumber downy mildew; [23]) was 83.04% and the “Efficacy (%)” value (cucumber downy mildew; 100 mg/L, 12th day after second administration, No. 1-3) was 83.71% and 76.93% and 88.46%. For the same compound, the “Efficacy (%)” value ([3]; 100 mg/L) was 88.71%, the “Spot area (mm^2)” value ([3]; 100 mg/L) was 6.82 mm^2 and the “Efficacy (%)” value ([3]; 500 mg/L) was 90.67%. The “Spot area (mm^2)” value ([3]; 500 mg/L) was 5.64 mm^2, the “Efficacy (%)” value ([4]; 100 mg/L) was 16.84% and the “Spot area (mm^2)” value ([4]; 100 mg/L) was 70.08 mm^2. For the same compound, the “Efficacy (%)” value ([4]; 500 mg/L) was 58.88%, the “Spot area (mm^2)” value ([4]; 500 mg/L) was 34.65 mm^2 and the “prevention and treatment effect” value [5] was “good prevention and treatment effect”. The Disease index ([5]; 100 mg/L) was 0, the “Efficacy (%)” value ([5]; 100 mg/L) was 100.00% and the Disease index ([5]; 500 mg/L) was 0. For the same compound, the “Efficacy (%)” value ([5]; 500 mg/L) was 100.00%, the “prevention and treatment effect” value [6] was “good prevention and treatment effect” and the Disease index ([6]; 100 mg/L) was 59.96. The “Efficacy (%)” value ([6]; 100 mg/L) was 61.67%, the Disease index ([6]; 500 mg/L) was 46.87 and the “Efficacy (%)” value ([6]; 500 mg/L) was 70.04%.
